From patent publication US20240254564A1, “METHODS FOR PREDICTING AND TREATING CHEMORESISTANCE IN SMALL CELL LUNG CANCER PATIENTS” (MEMORIAL SLOAN-KETTERING CANCER CENTER, priority 2021, published 2024)

What was measured:
XPO1-KO (sgXPO1) cells = assay: Selinexor specificity assay: viability of XPO1-expressing and XPO1-KO isogenic cells; format: cell-based; conditions: XPO1-KO isogenic cell line; viability normalized to untreated
Excerpt: HSA synergy scores for H69 Cisplatin+Selinexor and H69 Cisplatin+KPT-185 are 6.55 and 8.52, respectively. HSA synergy scores for H82 Cisplatin+Selinexor and H82 Cisplatin+KPT-185 are 12.29 and 10.68, respectively. […] The sequence of the sgXPO1 is AACCTGAACGAAATGCCTG (SEQ ID NO: 16). […] Two tailed Student's t-test was used to assess statistical significance of the differential expression between groups. p-values legend: * p<0.05, ** p<0.01, *** p<0.001.

H82 cells = assay: Propidium iodide / annexin V apoptosis assay by flow cytometry; format: cell-based; conditions: GI20 concentrations, 3 days
Procedure: Parental cells were treated with cisplatin (GI20), Selinexor (GI20) or their combination for 3 days. Alternatively, control and XPO1 CRISPR-KO cells were treated with cisplatin […] for 3 days. Then, cells were collected and stained with the APC Annexin V Apoptosis Detection Kit with PI (#640932, Biolegend, San Diego, CA) and apoptosis was analyzed by flow cytometry as previously described in Shrestha, C. L. et al., PLoS One 12: 1-17 (2017).

[1] = tested on: DNA damage response pathways in H82 cells; assay: Western blot of DNA damage sensing and repair proteins; format: cell-based
Procedure: (§1) Protein extraction and western blot were performed as previously described in Gardner, E. E. et al., Cancer Cell 31: 286-299 (2017), which is incorporated by reference in its entirety herein. Antibodies for pγH2AX (#39117, Active Motif, Carlsbad, CA), pATR (#53217, Cell Signaling Technology, Danvers, MA, Danvers, MA), ATR (#13934, Cell Signaling Technology, Danvers, MA, Danvers, MA), pATM (#31068, Cell Signaling Technology, Danvers, MA, Danvers, MA), ATM (#2873, Cell Signaling Technology, Danvers, MA, Danvers, MA), pChk2 (#12298, Cell Signaling Technology, Danvers, MA, Danvers, MA), Chk2 (#2662, Cell Signaling Technology, Danvers, MA, Danvers, MA), MSH2 (#2017, Cell Signaling Technology, Danvers, MA, Danvers, MA), MLH1 (#3515, Cell Signaling Technology, Danvers, MA, Danvers, MA), XPO1 (#46249, Cell Signaling Technology, Danvers, MA, Danvers, MA), and actin (#3700, Cell Signaling Technology, Danvers, MA, Danvers, MA). Quantifications were performed with the Image Studio software (Version 3.1, LI-COR Biosciences, Lincoln, NE). Immunohistochemistry for Exportin-1 was performed with the Exportin-1 antibody #611833 from BD in TMAs including resected tumor samples form SCLC and NSCLC patients. All study subjects had provided signed informed consent for biospecimen analyses under an Institutional Review Board-approved protocol.

[2] = tested on: Lx304 ASCL1^high chemonaive SCLC PDX; assay: In vivo treatment, tumor growth of chemonaive SCLC PDX Lx304; conditions: Lx304 PDX in NSG mice; day 14; cisplatin 2 mg/kg i.p. once/week, etoposide 3 mg/kg i.p. QDx3, Selinexor 10 mg/kg p.o. QDx3
Procedure: (§2) For treatments, 5-10 NOD.Cg-Prkd^scid Il2rg^tm1Wjl/SzJ (NSG) mice were engrafted per treatment arm and incubated until they reached 100-150 mm^3. At that point, mice were randomized into groups and treated with either vehicle, Cisplatin (2 mg/kg i.p. once/week), Etoposide (3 mg/kg i.p. QD×3), Selinexor (10 mg/kg p.o. QD×3), irinotecan (50 mg/kg i.p. WQ), or the combinations of cisplatin+etoposide, cisplatin+Selinexor, cisplatin+etoposide+Selinexor or irinotecan+Selinexor, at the previously mentioned doses. Mice weights and tumor volumes were measured twice a week and mice were sacrificed when tumors reached humane endpoint. All animal experiments were approved by the Memorial Sloan Kettering Cancer Center (MSKCC) Animal Care and Use Committee.

[3] = tested on: Lx33 NEUROD1^high chemonaive SCLC PDX; assay: In vivo treatment, tumor growth of chemonaive SCLC PDX Lx33; conditions: Lx33 PDX in NSG mice; day 17; cisplatin 2 mg/kg i.p. once/week, etoposide 3 mg/kg i.p. QDx3, Selinexor 10 mg/kg p.o. QDx3
Procedure: as §2

[4] = tested on: AKT/mTOR pathway in H69 and H82 cell lines; assay: Western blot of AKT/mTOR pathway activation; format: cell-based; set-up: concentration or dose not given beside the values; conditions: selinexor or combinations for 7 days
Procedure: FIGS. 9A-9G show impairment of chemotherapy-induced AKT/mTOR overactivation may contribute to selinexor efficacy in combination with chemotherapy. […] Synergy plots, showing the occurrence of synergy, addition, or antagonism (green), were calculated with the HSA method using the SynergyFinder web application (2.0).
as §1

[5] = tested on: Lx304B ASCL1^high SCLC PDX from chemorelapsed tumor; assay: In vivo treatment, tumor growth of chemorelapsed SCLC PDX Lx304B; conditions: Lx304B PDX in NSG mice; day 24; irinotecan 50 mg/kg i.p. WQ, Selinexor 10 mg/kg p.o. QDx3
Procedure: as §2

[6] = tested on: Lx1322 non-NE SCLC PDX from chemorelapsed tumor; assay: In vivo treatment, tumor growth of chemorelapsed SCLC PDX Lx1322; conditions: Lx1322 PDX in NSG mice; day 14; irinotecan 50 mg/kg i.p. WQ, Selinexor 10 mg/kg p.o. QDx3
Procedure: as §2

[7] = tested on: Lx108-R ASCL1^high cisplatin/etoposide-resistant SCLC PDX; assay: In vivo treatment, tumor growth of cisplatin/etoposide-resistant SCLC PDX Lx108-R; set-up: species or system mice; conditions: right after chemotherapy relapse in vivo
Procedure: as §2

O=C(/C=C\n1cnc(-c2cc(C(F)(F)F)cc(C(F)(F)F)c2)n1)NNc1cnccn1 [Selinexor] was tested, and the “cell viability after Selinexor treatment in the XPO1-KO cell line” value (XPO1-KO (sgXPO1) cells) was “no effect in viability”, the “apoptosis (propidium iodide/annexin V)” value (H82 cells) was “increased apoptosis” and the “reduction in the expression of MSH2 and MLH1 (Western blot)” value ([1]; Selinexor treatment) was “not observed”. The “T/C percentage values at control group endpoint” value [2] was 38.52%, the “T/C percentage values at control arm endpoint” value [3] was 40.99% and the “phosphorylation of mTOR, AKT and PRAS40 / AKT/mTOR pathway activation (Western blot)” value [4] was “suppressed”.
For CCc1c2c(nc3ccc(OC(=O)N4CCC(N5CCCCC5)CC4)cc13)-c1cc3c(c(=O)n1C2)COC(=O)[C@]3(O)CC [irinotecan], the “T/C percentage values at control arm endpoint” value [5] was 23.82%, the “T/C percentage values at control arm endpoint” value [6] was 18.09% and the “T/C percentage at experiment endpoint” value [7] was 75.27%. The “phosphorylation of mTOR, AKT and PRAS40 / AKT/mTOR pathway activation (Western blot)” value [4] was “induced”.
For N.N.[Cl][Pt][Cl] [cisplatin], the “activation of ATR and ATM (Western blot)” value ([1]; cisplatin treatment) was “activated”, the “T/C percentage values at control group endpoint” value [2] was 67.04% and the “T/C percentage values at control arm endpoint” value [3] was 79.73%. The “phosphorylation of mTOR, AKT and PRAS40 / AKT/mTOR pathway activation (Western blot)” value [4] was “Increased phosphorylation”.
For COc1cc([C@@H]2c3cc4c(cc3[C@@H](O[C@@H]3O[C@@H]5CO[C@@H](C)O[C@H]5[C@H](O)[C@H]3O)[C@H]3COC(=O)[C@H]23)OCO4)cc(OC)c1O [etoposide], the “T/C percentage values at control group endpoint” value [2] was 54.59% and the “T/C percentage values at control arm endpoint” value [3] was 63.14%.
